Test results as given in ChEMBL document CHEMBL1201862, “PubChem BioAssay data set” (2004).
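Where inhibition never reached the appropriate level, the endpoint shown equals the highest concentration tested. Otherwise, values were interpolated linearly from a five-concentration, 48-hour dose response in 96-well plates. At the GI50, growth is halved.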 Active and inactive are the calls of the source. Rule as the data show it: active = GI50 up to about 1.1 µM and inactive = higher.

How the values were obtained:
Experiment in all cases: inhibition of tumour cell growth, NCI panel, 48 h
[1] = system: OVCAR-8
[2] = system: UO-31
[3] = system: U-251
[4] = system: UACC-62
[5] = system: HT-29
[6] = system: CCRF-CEM
[7] = system: CAKI-1
[8] = system: SK-MEL-5
[9] = system: RXF 393
[10] = system: NCI-H23
[11] = system: NCI-H226
[12] = system: OVCAR-4
[13] = system: SW-620
[14] = system: UACC-257
[15] = system: A549
[16] = system: K562
[17] = system: A498
[18] = system: EKVX
[19] = system: SF-295
[20] = system: HCT-116

Measured: GI50

C=CS(=O)(=O)c1c2cc(OC)ccc2nc2ccc(OC)cc12
inactive: [1] 3.6 µM | [2] 3.08 µM | [3] 7.05 µM | [4] 12.2 µM | [5] 2.54 µM | [6] 3.22 µM | [7] 4.22 µM | [8] 14.1 µM | [9] 3.99 µM | [10] 4.02 µM | [11] 15.6 µM | [12] 13.1 µM | [13] 3.12 µM | [14] 7.53 µM | [15] 17.1 µM | [16] 4.39 µM | [17] 12.7 µM | [18] 8.32 µM | [19] 15 µM | [20] 2.11 µM

Clc1nc(Cl)nc(Nc2cccc3ccccc23)n1
inactive: [1] > 10 µM | [2] > 10 µM | [3] > 10 µM | [4] > 10 µM | [5] > 10 µM | [6] > 10 µM | [7] > 10 µM | [8] > 10 µM | [9] > 10 µM | [10] > 10 µM | [11] > 10 µM | [12] > 10 µM | [13] > 10 µM | [15] > 10 µM | [16] > 10 µM | [17] > 10 µM | [18] > 10 µM | [19] > 10 µM | [20] > 10 µM

Cc1cc(Cl)ccc1NC1=NC(=O)C(CC(=O)Nc2cccc(Cl)c2)S1 (centres undefined)
inactive: [1] > 100 µM | [2] 29.7 µM | [3] 33.2 µM | [4] 22.2 µM | [5] 20.5 µM | [6] 22.6 µM | [7] 8.79 µM | [8] 24.9 µM | [9] 12.1 µM | [10] 12.9 µM | [11] > 100 µM | [12] 29.2 µM | [13] 67 µM | [14] 38.8 µM | [15] 20.8 µM | [16] 13.8 µM | [17] 23.8 µM | [18] > 100 µM | [19] 18.5 µM | [20] 24.2 µM

C=CCOC1=C(OCC=C)C(C2COC(C)(C)O2)OC1=O (centres undefined)
inactive: [1] > 100 µM | [2] > 100 µM | [3] > 100 µM | [4] > 100 µM | [5] > 100 µM | [6] 29.4 µM | [7] 18.7 µM | [8] > 100 µM | [9] > 100 µM | [10] > 100 µM | [11] > 100 µM | [12] > 100 µM | [13] > 100 µM | [14] > 100 µM | [15] > 100 µM | [16] 75.5 µM | [17] > 100 µM | [18] > 100 µM | [19] > 100 µM | [20] > 100 µM

Cn1c(=O)c2nc(N3CCOCC3)cnc2n(C)c1=O
inactive: [1] > 100 µM | [2] > 100 µM | [3] > 100 µM | [4] > 100 µM | [5] > 100 µM | [6] > 100 µM | [7] > 100 µM | [8] > 100 µM | [10] > 100 µM | [12] > 100 µM | [13] > 100 µM | [14] > 100 µM | [15] > 100 µM | [16] > 100 µM | [17] > 100 µM | [18] > 100 µM | [19] > 100 µM | [20] > 100 µM

CC1(C)C(=O)c2ccccc2OC1N1CCN(C2Oc3ccccc3C(=O)C2(C)C)CC1 (centres undefined)
inactive: [2] > 100 µM | [3] > 100 µM | [4] 82.6 µM | [5] > 100 µM | [6] > 100 µM | [7] > 100 µM | [8] > 100 µM | [9] 48.1 µM | [10] > 100 µM | [11] > 100 µM | [12] > 100 µM | [13] > 100 µM | [16] > 100 µM | [17] 24.5 µM | [18] > 100 µM | [20] 82.4 µM

Cn1ccnc1C(O)(c1nccn1C)c1nccn1C
inactive: [1] > 100 µM | [2] > 100 µM | [3] > 100 µM | [5] > 100 µM | [7] > 100 µM | [8] > 100 µM | [9] > 100 µM | [10] > 100 µM | [11] > 100 µM | [12] > 100 µM | [13] > 100 µM | [14] > 100 µM | [18] > 100 µM | [19] > 100 µM

CC(NCCS(=O)(=O)O)C(=O)O (centres undefined)
inactive: [1] > 100 µM | [2] > 100 µM | [3] > 100 µM | [4] > 100 µM | [5] > 100 µM | [6] > 100 µM | [7] > 100 µM | [8] > 100 µM | [9] > 100 µM | [10] > 100 µM | [11] > 100 µM | [12] > 100 µM | [13] > 100 µM | [14] > 100 µM | [15] > 100 µM | [16] > 100 µM | [17] > 77.3 µM | [18] > 100 µM | [19] > 100 µM | [20] > 100 µM

C=CCN(N=O)C(=O)N(CCC)CCCCC(NC(C)=O)C(=O)NCc1ccccc1 (centres undefined)
inactive: [1] > 100 µM | [2] 88.1 µM | [3] > 100 µM | [4] > 100 µM | [5] 29.2 µM | [6] 33.7 µM | [7] 48.2 µM | [8] 67.9 µM | [9] 38.1 µM | [10] > 100 µM | [11] > 100 µM | [12] 64.1 µM | [13] > 100 µM | [14] > 100 µM | [15] > 100 µM | [16] 51.6 µM | [17] > 100 µM | [18] > 100 µM | [19] > 100 µM

COC(=O)C1CCC(=O)N1C(=O)Cc1ccc(OC)cc1 (centres undefined)
inactive: [1] > 100 µM | [2] > 100 µM | [3] > 100 µM | [4] > 100 µM | [5] > 100 µM | [7] > 100 µM | [8] > 100 µM | [10] > 100 µM | [11] > 100 µM | [12] > 100 µM | [13] > 100 µM | [14] > 100 µM | [15] > 100 µM | [17] > 100 µM | [18] > 100 µM | [19] > 100 µM | [20] > 100 µM

CCCn1cc2c(O)nc(SC)nc2n1
inactive: [1] > 100 µM | [2] 72.6 µM | [3] > 100 µM | [5] > 100 µM | [6] > 100 µM | [7] > 100 µM | [8] > 100 µM | [9] > 100 µM | [10] > 100 µM | [11] 19.9 µM | [12] 91.4 µM | [13] > 100 µM | [14] > 100 µM | [15] > 100 µM | [16] > 10 µM | [17] 59.6 µM | [18] > 100 µM | [19] > 100 µM | [20] > 100 µM

Nc1nc(N)c2c(n1)NC(=O)c1c(c3ccccc3n1Cc1ccc(Cl)cc1)C2
inactive: [1] 26.4 µM | [2] > 100 µM | [3] 25.8 µM | [4] 45.7 µM | [5] 31.3 µM | [6] 17.7 µM | [7] 19.7 µM | [8] 15.3 µM | [9] 15.5 µM | [10] > 100 µM | [11] 37.6 µM | [12] 18.5 µM | [13] 35.8 µM | [14] 64.1 µM | [15] 21.1 µM | [16] 25.6 µM | [17] 16 µM | [18] 33.2 µM | [19] 34.2 µM | [20] 23.6 µM

O=C1C2=C(C3=NCCc4c[nH]c1c43)c1c(Br)cc(Br)cc1CCN2
inactive: [1] 2.98 µM | [2] 6.22 µM | [3] 3.66 µM | [4] 1.14 µM | [5] 2.45 µM | [6] 2.58 µM | [7] 13.4 µM | [8] 1.62 µM | [9] 4.75 µM | [10] 1.79 µM | [11] 4.41 µM | [12] 2.22 µM | [13] 2.24 µM | [14] 1.5 µM | [15] 2.73 µM | [16] 2.68 µM | [17] 11.2 µM | [18] 3.01 µM | [19] 2.42 µM | [20] 1.84 µM

O=C(O)CNS(=O)(=O)c1ccc(NC(=O)Nc2ccccc2)cc1
inactive: [1] > 100 µM | [2] > 100 µM | [3] > 100 µM | [4] > 38.3 µM | [5] > 100 µM | [6] > 100 µM | [7] > 100 µM | [8] > 100 µM | [9] > 100 µM | [10] > 100 µM | [11] > 100 µM | [12] > 100 µM | [13] > 100 µM | [14] > 100 µM | [15] > 100 µM | [16] > 100 µM | [17] > 100 µM | [18] > 100 µM | [19] > 100 µM | [20] > 100 µM

COc1ccc(C2C(Cl)C(=O)N2NC(=O)c2ccccc2O)cc1 (centres undefined)
inactive: [1] > 100 µM | [2] > 100 µM | [3] > 100 µM | [4] > 100 µM | [5] > 100 µM | [6] > 100 µM | [8] > 100 µM | [9] > 100 µM | [10] > 100 µM | [12] > 100 µM | [13] > 100 µM | [14] > 100 µM | [15] > 100 µM | [16] > 100 µM | [18] > 100 µM | [19] > 100 µM | [20] > 100 µM
